Experimental findings from EP0579733B1, “THIAZOLIDINEDIONE DERIVATIVES, PRODUCTION AND USE THEREOF” (priority 1991, dated 1992) are described below.

The subject of one series is KKA^y-mice. The series is described as follows: Hypoglycemic and hypolipidemic activities in mice. The series is classed as in vivo. Conditions: 0.005% by weight in chow diet, given freely for 4 days, KKA^y-mice (male, 9 to 10 weeks old); for Hypoglycemic activity (%): % reduction of blood sugar level from control groups, glucose oxidase method; for Hypolipidemic activity (%): % reduction of plasma lipid level from control groups, Kit Cleantech TG-S. How it is done: Test compounds were mixed with laboratory chow diet (CE-2, Clea Japan Inc., Tokyo, Japan) in a proportion of 0.005% by weight. The dietary admixture was given freely to KKA^y-mice (male, 9 to 10 weeks old) for 4 days. During the period, water was given freely. Blood was collected from the orbitral venous plexus. The blood sugar level was determined according to glucose oxidase method. The plasma lipid level was enzymatically determined by using Kit Cleantech TG-S (Iatron, Tokyo, Japan). Values represent % reduction from control groups.

The next series relates to mice. The series is described as follows: Toxicity after oral administration to mice (lethality). Format: in vivo. Conditions: orally administered to mice in a dose of 300 mg/kg. An excerpt: The compound (I), the pharmacologically acceptable salt thereof, or the pure stereoisomeric form thereof has hypoglycemic and hypolipidemic activities. Further, the compound (I), the pharmacologically acceptable salt thereof or the pure stereoisomeric form thereof has low toxicity. […] Therefore, the compound (I), its pharmacologically acceptable salt or pure stereoisomeric form can be used for treatment of diabetes of mammals including man as it is or by combining with a known pharmacologically acceptable carrier, excipient, filler and the like.

Regarding `CC(O)c1ccc(CCOc2ccc(CC3SC(=O)NC3=O)cc2)nc1` (stereo not drawn) [Example 1, 5-[4-[2-[5-(l-hydroxyethyl)-2-pyridyl]ethoxy]benzyl]-2,4-thiazolidinedione], in the series with KKA^y-mice, the “Hypoglycemic activity (%)” value came to 46% and the “Hypolipidemic activity (%)” value turned out to be 5%. For the same compound, the lethality entry with mice is listed as “no lethal case was observed”.

As for `CC(=O)c1ccc(CCOc2ccc(CC3SC(=O)NC3=O)cc2)nc1` (stereo not drawn) [Example 2, 5-[4-[2-(5-acetyl-2-pyridyl)ethoxy]benzyl]-2,4-thiazolidinedione], in the series with KKA^y-mice, the “Hypoglycemic activity (%)” value is listed as 56% and the “Hypolipidemic activity (%)” value was found to be 43%. The lethality entry in the series on mice is “no lethal case was observed”.
